Data set [1] in a line: RP-UHPLC lipophilicity parameter log k’w. The following applies: for log k’w: RP-UHPLC, acetonitrile/water, log k extrapolated to 0% acetonitrile; for logkw: experimental lipophilicity parameter. The format is physicochemical. The gist of the method:
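Retention was measured once per eluent composition: subtype I at 40/45/50% and subtype II at 20/30/40% acetonitrile in water, isocratic RP-UHPLC. log k values from these runs gave the lipophilicity index log k’w.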

Data set [2] deals with M. smegmatis DSM 43465 (ATCC 607). Kind of data set: Antimycobacterial MIC, microdilution broth / resazurin. The format is cell-based. The following applies: Mycolicibacterium smegmatis; resazurin after 48 h; read-out: MIC M. smegmatis.
For data set [3], the system named is M. avium DSM 44156 (ATCC 25291). Described as above. The following applies: Mycobacterium avium; resazurin after 96 h; read-out: MIC M. avium. The format is cell-based, Mycobacterium avium. Background: The colour change of resazurin is a common sign of viable cells or microbes.
The test system of data set [4] is M. kansasii DSM 44162 (ATCC 12478). The data set is described as above. In kind it is cell-based. The following applies: Mycobacterium kansasii, read-out: MIC M. kansasii.
The test system of data set [5] is Staphylococcus aureus subsp. aureus CCM 4223 (ATCC 29213). Nature of the data set: Antibacterial microdilution broth (EUCAST). The following applies: 24h incubation; for MIC: Staphylococcus aureus, read-out: MIC SA. The format is cell-based. (Dilution methods test growth across graded concentrations, often in twofold steps.)
The subject of data set [6] is Staphylococcus aureus subsp. aureus (MRSA) CCM 4750 (ATCC 43300). Kind of data set: Antibacterial microdilution broth (EUCAST). In kind it is cell-based. The following applies: 24h incubation; for MIC: Staphylococcus aureus, read-out: MIC MRSA.
In data set [7] the test system is Staphylococcus epidermidis CCM 4418 (ATCC 12228). Kind of data set: Antibacterial microdilution broth (EUCAST). The format is cell-based. The following applies: 24h incubation; for MIC: Staphylococcus epidermidis, read-out: MIC SE.
The test system of data set [8] is Enterococcus faecalis CCM 4224 (ATCC 29212). Nature of the data set: Antibacterial microdilution broth (EUCAST). The format is cell-based. The following applies: 24h incubation; for MIC: Enterococcus faecalis, read-out: MIC EF.
Data set [9] relates to Escherichia coli CCM 3954 (ATCC 25922). Nature of the data set: Antibacterial microdilution broth (EUCAST). The format is cell-based. The following applies: 24h incubation; for MIC: Escherichia coli, read-out: MIC EC.
The test system of data set [10] is Acinetobacter baumannii DSM 30007 (ATCC 19606). Nature of the data set: Antibacterial microdilution broth (EUCAST). In kind it is cell-based. The following applies: 24h incubation; for MIC: Acinetobacter baumannii, read-out: MIC AB.
Data set [11] relates to Pseudomonas aeruginosa CCM 3955 (ATCC 27853). Kind of data set: Antibacterial microdilution broth (EUCAST). In kind it is cell-based. The following applies: 72h incubation; for MIC: Pseudomonas aeruginosa, read-out: MIC PA.
Data set [12] concerns Mycobacterium tuberculosis H37Ra ITM-M006710 (ATCC 9431). Set-up: method as in PMID 30108959. The following applies: cited from earlier work.
Data set [13] relates to Candida albicans CCM 8320 (ATCC 24433). Nature of the data set: Antifungal microdilution broth (EUCAST). The following applies: for MIC: Candida albicans, 24 h, read-out: MIC CA.
Data set [14] has as its system Candida krusei CCM 8271 (ATCC 6258). Kind of data set: Antifungal microdilution broth (EUCAST). The following applies: for MIC: Pichia kudriavzevii, 24 h, read-out: MIC CK.
Data set [15] concerns Candida parapsilosis CCM 8260 (ATCC 22019). Nature of the data set: Antifungal microdilution broth (EUCAST). The following applies: for MIC: Lodderomyces parapsilosis, 24 h, read-out: MIC CP.
Data set [16] concerns Candida tropicalis CCM 8264 (ATCC 750). Nature of the data set: Antifungal microdilution broth (EUCAST). The following applies: for MIC: Candida tropicalis, 24 h, read-out: MIC CT.
Data set [17] deals with Aspergillus fumigatus ATCC 204305. Nature of the data set: Antifungal microdilution broth (EUCAST). The following applies: for MIC: Aspergillus fumigatus, ATCC204305, 24 h, read-out: MIC AF.
In data set [18] the test system is Aspergillus flavus CCM 8363. Nature of the data set: Antifungal microdilution broth (EUCAST). The following applies: for MIC: Aspergillus flavus, CCM8363, 24 h, read-out: MIC AFla.
For data set [19], the system named is Lichtheimia corymbifera CCM 8077. Kind of data set: Antifungal microdilution broth (EUCAST). The following applies: for MIC: Lichtheimia corymbifera, CCM8077, 24 h, read-out: MIC LC.
Data set [20] concerns Trichophyton interdigitale CCM 8377 (ATCC 9533). Kind of data set: Antifungal microdilution broth (EUCAST). The following applies: for MIC: Trichophyton interdigitale, 72 h, read-out: MIC TI.
For another data set, the system named is G+ and G- bacteria. Details: method as in PMID 24561667. The following applies: whole cell, cited from earlier work.
A further data set relates to Escherichia coli FabH. Details: method as in PMID 24561667. The following applies: cited from earlier work.
In another data set the test system is HepG2 cells. Nature of the data set: HepG2 cytotoxicity screening (CellTiter 96). The following applies: for IC50: Homo sapiens, HepG2, 24 h, 24 h incubation, CellTiter 96, * above highest tested concentration, ** limited by insolubility in medium. The format is cell-based, human.
Data set [21] concerns Mycobacterium tuberculosis H37Ra ITM-M006710 (ATCC 9431). Nature of the data set: Antimycobacterial MIC, microdilution broth / Alamar Blue (resazurin). In kind it is cell-based. The following applies: for MIC: Mycobacterium tuberculosis.
Data set [22] concerns M. aurum DSM 43999 (ATCC 23366). Nature of the data set: Antimycobacterial MIC, microdilution broth / resazurin. The following applies: Mycolicibacterium aurum; resazurin after 72 h; read-out: MIC M. aurum. The format is cell-based.
Data set [23] relates to bacterial MetAP (S. aureus, E. coli) vs hMetAP. Details: method as in PMID 15664828. The following applies: tested against S. aureus; cited from earlier work.
The subject of a further data set is PC12 cells. Set-up: method as in PMID 19125579. The following applies: acting as a PARP inhibitor; cited from earlier work.
[24] abbreviates: 120 h, Middlebrook 7H9, resazurin after 120 h, read-out: Mtb H37Ra MIC.

Converted amounts (≈) assume the structure as drawn. Like-named read-outs stand apart in the source and are kept apart here.

In the case of `O=C(Nc1nc(-c2ccccc2)cs1)c1cnc(Cl)cn1` [Compound 18a], the “log k’w” value in [1] is listed as 3.173. Further, in data set [1], the logkw stood at 3.173. In addition, the MIC in [2] is greater than 500 µg/mL; in data set [3], greater than 100 µg/mL; in data set [4] (resazurin after 96 h), greater than 100 µg/mL. In addition, the “MIC SA” value in data set [5] was “insoluble”. In data set [6], the “MIC MRSA” value is “insoluble”. In addition, the “MIC SE” value in [7] is “insoluble”. For the same compound, the “MIC EF” value in data set [8] is reported as “insoluble”. Besides, the “MIC EC” value in [9] is “insoluble”. In data set [10], the “MIC AB” value was “insoluble”. In addition, the “MIC PA” value in data set [11] is “insoluble”. Also, the “Mtb H37Ra MIC” value in data set [12] was >100 [11] µg/mL. Moreover, the “MIC CA” value in data set [13] (24h incubation) is on record as “insoluble”. Also, the “MIC CK” value in data set [14] (24h incubation) is given as “insoluble”. Moreover, the “MIC CP” value in data set [15] (24h incubation) was “insoluble”. In data set [16] (24h incubation), the “MIC CT” value is recorded as “insoluble”. Also, the “MIC AF” value in data set [17] (24h incubation) is recorded as “insoluble”. The “MIC AFla” value in data set [18] (24h incubation) is recorded as “insoluble”. The “MIC LC” value in data set [19] (24h incubation) is listed as “insoluble”. Also, in data set [20] (72h incubation), the “MIC TI” value is “insoluble”.

Turning to `O=C(Nc1nc(-c2ccc(Br)cc2)cs1)c1cccc(Cl)c1` [C], the MIC in the data set with G+ and G- bacteria (recalculated to µM) is 7.9 to 31.8 µM; with G+ and G- bacteria, 3.13 to 12.5 µg/mL. Moreover, the IC50 – broadly, the concentration needed to halve the response being measured – with Escherichia coli FabH is 9.3 µM.

With `O=C(Nc1nccs1)c1ccccn1` [Compound 1a], the “log k’w” value in [1] is 1.857. Also, the logkw in data set [1] worked out at 1.857. This compound returned an IC50 in the data set on HepG2 cells greater than 1000 µM. The MIC in data set [21] (setting [24]) is 31.2 µg/mL; in [2] it was 62.5 µg/mL (≈ 305 µM); in [22] it was 7.81 µg/mL (≈ 38.1 µM); in data set [5] it was greater than 500 µM; in data set [6] it was greater than 500 µM; in data set [7], greater than 500 µM. Also, the MIC in data set [8] is greater than 500 µM; in data set [9] it was greater than 500 µM; in data set [10], greater than 500 µM; in data set [11], greater than 500 µM; in data set [13] it was greater than 500 µM; in data set [14], 500 µM (≈ 103 µg/mL). The MIC in data set [15] is 500 µM (≈ 103 µg/mL); in data set [16], greater than 500 µM; in data set [17], 500 µM (≈ 103 µg/mL); in data set [18], greater than 500 µM; in [19], greater than 500 µM; in data set [20], 500 µM (≈ 103 µg/mL). Moreover, the “selectivity towards bacterial MetAP over human homologue” value in [23] is given as 100 fold.

For `O=C(Nc1nc(-c2ccccc2)cs1)c1ccncc1` [Compound 13a], the “log k’w” value in data set [1] was 2.190. Further, in data set [1], the logkw is reported as 2.19. In addition, the IC50 in the data set on HepG2 cells was greater than 100 µM. In the data set on HepG2 cells (SI = IC50 (µM) HepG2 / MICH37Ra (µM)), this compound returned an SI greater than 3.6. The “Mtb H37Ra MIC” value in data set [21] (Middlebrook 7H9, resazurin after 120 h) amounted to 7.81 µg/mL. Moreover, the MIC in data set [21] (setting [24]) was 3.91 to 7.81 µg/mL; in [21] (recalculated from µg/mL, read-out: MICH37Ra), 27.8 µM; in [2] it was no less than 500 µg/mL; in data set [22] it was no less than 500 µg/mL; in data set [3] it was no less than 500 µg/mL; in data set [4] (96 h), 7.81 µg/mL (≈ 27.8 µM). Also, the MIC in data set [5], in data set [6], in data set [7], in data set [8], in [9] and in [10] was greater than 125 µM in each case. Also, the MIC in [11], in data set [13], in data set [14], in data set [15], in data set [16] and in data set [17] was greater than 125 µM throughout. For the same compound, the MIC in [18], in [19] and in data set [20] was greater than 125 µM in each case. For the same compound, the cytoprotective effect entry in the data set with PC12 cells was “moderate cytoprotective effect”.

(Values after publication PMC9143880, “Improving Antimicrobial Activity and Physico-Chemical Properties by Isosteric Replacement of 2-Aminothiazole with 2-Aminooxazole” (Pharmaceuticals, 2022).)
